Reference: patent US4277465A, “Adjuvant for promoting absorption of therapeutically active substances through the digestive tract” (Kyoto Yakuhin Kogyo Kabushiki Kaisha, priority 1978, dated 1981)

What was measured:
Type in all cases: in vivo
[1] = Rectal insulin suppositories (Recipes 21-34), glucose response; settings: rectal suppository 6 I.U. insulin
Experimental: |Enamine derivative (I) | As indicated in | Table 12 […] The above components were used to prepare rectal suppositories in accordance with established pharmaceutical practice. The suppositories were administered to rabbits and dogs by rectal route. […] The test was conducted by the glucose oxidase method.

[2] = Rectal suppositories of AB-PC-Na with enamine derivative, concentration in blood; settings: AB-PC-Na 75mg, dog
Experimental: These suppositories were rectally administered to dogs and the absorbabilities of the active components were investigated by measuring the blood concentrations. The blood concentrations were measured in conformity with the biological assay method in the Antibiotic Standard of Japan. The cup method was employed with Sarcina lutea for penicillins and Bacillus subtilis for cephalosporins.

[3] = Rectal insulin suppositories (Recipes 35-41), glucose response; settings: rectal suppository 6 I.U. insulin, enamine derivative 0.025g (5%)
Excerpt: These suppositories were rectally administered to rabbits (R, 2.5-3kg) and dogs (D, 12-13kg).

[4] = Rectal suppositories of CET-Na with enamine derivative, concentration in blood; settings: dog
Experimental: These suppositories were rectally administered to dogs and the absorbabilities of the active components were investigated by measuring the blood concentrations.
The blood concentrations were measured in conformity with the biological assay method in the Antibiotic Standard of Japan. The cup method was employed with Sarcina lutea for penicillins and Bacillus subtilis for cephalosporins.

[5] = enamine derivative 60mg (5%), base Witepsol H-15 1065mg
[6] = enamine derivative 120mg (10%), base Witepsol H-15 1005mg
[7] = CET-Na 75mg, enamine derivative 120mg (10%), base Witepsol H-15 1005mg
[8] = CET-Na 75mg, enamine derivative 60mg (5%), base Witepsol H-15 1065mg
[9] = CET-Na 75mg, enamine derivative 60mg (5%), base SB-W 1065mg
[10] = CET-Na 500mg, enamine derivative 150mg (10%), base Witepsol H-15 850mg
[11] = enamine derivative 120mg (10%), base SB-W 1005mg

Compound: CCOC(=O)C=C(C)N[C@@H](CO)C(=O)[O-].[Na+] [Compound 31, N-(1-Methyl-2-ethoxycarbonylvinyl)-L-serine sodium salt]
- Time course: Lowest level ([1]; rabbit, enamine derivative 10%): 60 to 90 min
- Time course: Onset ([1]; rabbit, enamine derivative 10%): 30 min
- Time course: Return to pre-medication level ([1]; rabbit, enamine derivative 10%): 180 min
- Concentration in blood, 15 min. [2, 5]: 700 ng/mL
- Concentration in blood, 30 min. [2, 5]: 380 ng/mL
- Concentration in blood, 60 min. [2, 5]: 240 ng/mL
- Concentration in blood, 120 min. [2, 5]: 90 ng/mL

Compound: CC(=CC(=O)NCCO)N[C@@H](Cc1ccccc1)C(=O)[O-].[Na+] [Compound 36, N-[1-Methyl-2-(2-hydroxyethylcarbamoyl)vinyl]-L-phenylalanine sodium salt]
- Blood glucose response (6 I.U.) ([3]; rabbit 2.5-3kg): 20-30%
- Time course: Lowest level ([3]; rabbit 2.5-3kg): 30 to 60 min
- Time course: Onset ([3]; rabbit 2.5-3kg): 15 min
- Time course: Return to pre-medication level ([3]; rabbit 2.5-3kg): 120 min
- Concentration in blood, 15 min. [2, 6]: 1450 ng/mL
- Concentration in blood, 30 min. [2, 6]: 1530 ng/mL
- Concentration in blood, 60 min. [2, 6]: 800 ng/mL
- Concentration in blood, 120 min. [2, 6]: 400 ng/mL

Compound: CCOC(=O)CNC(=O)C=C(C)N[C@@H](Cc1ccccc1)C(=O)[O-].[Na+] [Compound 37, N-(1-Methyl-2-ethoxycarbonylmethylcarbamoyl-vinyl)-L-phenylalanine sodium salt]
- Blood glucose response (6 I.U.) ([3]; rabbit 2.5-3kg): 20-30%
- Time course: Lowest level ([3]; rabbit 2.5-3kg): 30 to 60 min
- Time course: Onset ([3]; rabbit 2.5-3kg): 30 min
- Time course: Return to pre-medication level ([3]; rabbit 2.5-3kg): 120 min
- Concentration in blood, 15 min. [4, 7]: 1500 ng/mL
- Concentration in blood, 30 min. [4, 7]: 1280 ng/mL
- Concentration in blood, 60 min. [4, 7]: 870 ng/mL
- Concentration in blood, 120 min. [4, 7]: 440 ng/mL

Compound: CCOC(=O)C=C(C)N[C@H](C(=O)[O-])[C@@H](C)O.[Na+] [Compound 22, N-(1-Methyl-2-ethoxycarbonylvinyl)-L-threonine sodium salt]
- Time course: Lowest level ([1]; rabbit, enamine derivative 5%): 45 to 75 min
- Time course: Onset ([1]; rabbit, enamine derivative 5%): 30 min
- Time course: Return to pre-medication level ([1]; rabbit, enamine derivative 5%): 180 min
- Concentration in blood, 15 min. [4, 8]: 750 ng/mL
- Concentration in blood, 30 min. [4, 8]: 570 ng/mL
- Concentration in blood, 60 min. [4, 8]: 310 ng/mL

Compound: CCOC(=O)C(C)OC(=O)C=C(C)NCC(=O)[O-].[Na+] (centres unmarked) [Compound 32, N-[1-Methyl-2-(1-ethoxycarbonyl-ethoxycarbonyl)vinyl]glycine sodium salt]
- Blood glucose response (6 I.U.) ([3]; dog 12-13kg): 30-40%
- Time course: Lowest level ([3]; dog 12-13kg): 30 to 60 min
- Time course: Onset ([3]; dog 12-13kg): 30 min
- Time course: Return to pre-medication level ([3]; dog 12-13kg): 120 min
- Blood glucose response (6 I.U.) ([3]; rabbit 2.5-3kg): 45-55%
- Time course: Lowest level ([3]; rabbit 2.5-3kg): 45 to 60 min
- Time course: Onset ([3]; rabbit 2.5-3kg): 15 min
- Time course: Return to pre-medication level ([3]; rabbit 2.5-3kg): 150 min
- Concentration in blood, 15 min. [4, 9]: 1500 ng/mL
- Concentration in blood, 30 min. [4, 9]: 1120 ng/mL
- Concentration in blood, 60 min. [4, 9]: 730 ng/mL
- Concentration in blood, 120 min. [4, 9]: 400 ng/mL

Compound: CCOC(=O)C=C(C)N[C@@H](Cc1c[nH]cn1)C(=O)[O-].[Na+] [Compound 28, α-N-(1-Methyl-2-ethoxycarbonylvinyl)-L-histidine sodium salt]
- Blood glucose response (6 I.U.) ([1]; rabbit, enamine derivative 10%): 30%
- Time course: Lowest level ([1]; rabbit, enamine derivative 10%): 60 to 90 min
- Time course: Onset ([1]; rabbit, enamine derivative 10%): 30 min
- Time course: Return to pre-medication level ([1]; rabbit, enamine derivative 10%): 180 min

Compound: CC(=CC(=O)OC(C)C(=O)O)N[C@@H](CCCNC(=N)N)C(=O)O (stereo partly drawn) [Compound 35, α-N-(1-Methyl-2-(1-carboxy-ethoxycarbonyl)vinyl]-L-arginine]
- Blood glucose response (6 I.U.) ([3]; rabbit 2.5-3kg): 20-30%
- Time course: Lowest level ([3]; rabbit 2.5-3kg): 30 to 60 min
- Time course: Onset ([3]; rabbit 2.5-3kg): 15 min
- Time course: Return to pre-medication level ([3]; rabbit 2.5-3kg): 120 min

Compound: CCOC(=O)C=C(C)NC(C(=O)[O-])c1ccccc1.[Na+] (racemic) [Compound 24, N-(1-Methyl-2-ethoxycarbonylvinyl)-DL-phenylglycine sodium salt]
- Time course: Lowest level ([1]; rabbit, enamine derivative 1%): 30 to 60 min
- Time course: Onset ([1]; rabbit, enamine derivative 1%): 15 min
- Time course: Return to pre-medication level ([1]; rabbit, enamine derivative 1%): 180 min

Compound: CCOC(=O)C=C(C)N[C@@H](Cc1ccccc1)C(=O)[O-].[Na+] [Compound 25, N-(1-Methyl-2-ethoxycarbonylvinyl)-L-phenylalanine sodium salt]
- Time course: Lowest level ([1]; rabbit, enamine derivative 1%): 45 to 90 min
- Time course: Onset ([1]; rabbit, enamine derivative 1%): 30 min
- Time course: Return to pre-medication level ([1]; rabbit, enamine derivative 1%): 180 min

Compound: CCOC(=O)C=C(C)N[C@H](C(=O)[O-])[C@@H](C)CC.[Na+] [Compound 20, N-(1-Methyl-2-ethoxycarbonylvinyl)-L-isoleucine sodium salt]
- Blood glucose response (6 I.U.) ([1]; dog, enamine derivative 2%): 25-35%
- Time course: Lowest level ([1]; dog, enamine derivative 2%): 120 min
- Time course: Onset ([1]; dog, enamine derivative 2%): 60 to 90 min
- Time course: Return to pre-medication level ([1]; dog, enamine derivative 2%): 180 to 240 min
- Concentration in blood, 15 min. [4, 10]: 9000 ng/mL
- Concentration in blood, 30 min. [4, 10]: 6230 ng/mL
- Concentration in blood, 60 min. [4, 10]: 2910 ng/mL
- Concentration in blood, 120 min. [4, 10]: 1000 ng/mL

Compound: CCOC(=O)C=C(C)NCCCCCCCCCCC(=O)[O-].[Na+] [Compound 30, N-(1-Methyl-2-ethoxycarbonylvinyl)-11-aminoundecanoic acid sodium salt]
- Time course: Lowest level ([1]; rabbit, enamine derivative 10%): 60 to 90 min
- Time course: Onset ([1]; rabbit, enamine derivative 10%): 30 min
- Time course: Return to pre-medication level ([1]; rabbit, enamine derivative 10%): 180 min

Compound: CCOC(=O)C=C(C)N[C@@H](CCCNC(=N)N)C(=O)O [Compound 29, α-N-(1-Methyl-2-ethoxycarbonylvinyl)-L-arginine]
- Blood glucose response (6 I.U.) ([1]; rabbit, enamine derivative 5%): 40-50%
- Time course: Lowest level ([1]; rabbit, enamine derivative 5%): 60 to 90 min
- Time course: Onset ([1]; rabbit, enamine derivative 5%): 15 min
- Time course: Return to pre-medication level ([1]; rabbit, enamine derivative 5%): 210 min
- Concentration in blood, 15 min. [2, 11]: 500 ng/mL
- Concentration in blood, 30 min. [2, 11]: 530 ng/mL
- Concentration in blood, 60 min. [2, 11]: 610 ng/mL
- Concentration in blood, 120 min. [2, 11]: 410 ng/mL

Compound: CCOC(=O)C=C(C)N[C@@H](Cc1c[nH]c2ccccc12)C(=O)[O-].[Na+] [Compound 27, α-N-(1-Methyl-2-ethoxycarbonylvinyl)-L-tryptophan sodium salt]
- Blood glucose response (6 I.U.) ([1]; rabbit, enamine derivative 10%): 30%
- Time course: Lowest level ([1]; rabbit, enamine derivative 10%): 60 to 90 min
- Time course: Onset ([1]; rabbit, enamine derivative 10%): 30 min
- Time course: Return to pre-medication level ([1]; rabbit, enamine derivative 10%): 180 min
- Concentration in blood, 15 min. [2, 11]: 1600 ng/mL
- Concentration in blood, 30 min. [2, 11]: 1500 ng/mL
- Concentration in blood, 60 min. [2, 11]: 740 ng/mL
- Concentration in blood, 120 min. [2, 11]: 400 ng/mL

Compound: CCOC(=O)C=C(C)N[C@@H](C)C(=O)[O-].[Na+] [Compound 19, N-(1-Methyl-2-ethoxycarbonylvinyl)-L-alanine sodium salt]
- Time course: Lowest level ([1]; rabbit, enamine derivative 1%): 45 to 60 min
- Time course: Onset ([1]; rabbit, enamine derivative 1%): 30 min
- Time course: Return to pre-medication level ([1]; rabbit, enamine derivative 1%): 180 min

Compound: CCOC(=O)C(C)OC(=O)C=C(C)NC(C)C(=O)[O-].[Na+] (racemic) [Compound 33, N-[1-Methyl-2-(1-ethoxycarbonyl-ethoxycarbonyl)vinyl]-DL-alanine sodium salt]
- Blood glucose response (6 I.U.) ([3]; rabbit 2.5-3kg): 45-55%
- Time course: Lowest level ([3]; rabbit 2.5-3kg): 45 to 60 min
- Time course: Onset ([3]; rabbit 2.5-3kg): 15 min
- Time course: Return to pre-medication level ([3]; rabbit 2.5-3kg): 150 min

Compound: CCOC(=O)C=C(C)NC(C)C(=O)[O-].[Na+] (racemic) [Compound 18, N-(1-Methyl-2-ethoxycarbonylvinyl)-DL-alanine sodium salt]
- Time course: Lowest level ([1]; rabbit, enamine derivative 1%): 45 to 60 min
- Time course: Onset ([1]; rabbit, enamine derivative 1%): 30 min
- Time course: Return to pre-medication level ([1]; rabbit, enamine derivative 1%): 180 min

Compound: CC(=CC(=O)OCC(O)CO)NCC(=O)[O-].[Na+] (centres unmarked) [Compound 38, N-[1-Methyl-2-(2,3-dihydroxypropoxycarbonyl)vinyl]glycine sodium salt]
- Blood glucose response (6 I.U.) ([3]; rabbit 2.5-3kg): 45-55%
- Time course: Lowest level ([3]; rabbit 2.5-3kg): 45 to 60 min
- Time course: Onset ([3]; rabbit 2.5-3kg): 15 min
- Time course: Return to pre-medication level ([3]; rabbit 2.5-3kg): 150 min

Compound: CCOC(=O)C=C(C)N[C@H](C(=O)[O-])C(C)C.[Na+] [Compound 26, N-(1-Methyl-2-ethoxycarbonylvinyl)-L-valine sodium salt]
- Time course: Lowest level ([1]; rabbit, enamine derivative 10%): 60 to 90 min
- Time course: Onset ([1]; rabbit, enamine derivative 10%): 30 min
- Time course: Return to pre-medication level ([1]; rabbit, enamine derivative 10%): 180 min

Compound: CCOC(=O)C=C(C)N[C@@H](CCSC)C(=O)[O-].[Na+] [Compound 23, N-(1-Methyl-2-ethoxycarbonylvinyl)-L-methionine sodium salt]
- Time course: Lowest level ([1]; rabbit, enamine derivative 10%): 60 to 90 min
- Time course: Onset ([1]; rabbit, enamine derivative 10%): 30 min
- Time course: Return to pre-medication level ([1]; rabbit, enamine derivative 10%): 180 min
- Concentration in blood, 15 min. [2, 5]: 520 ng/mL
- Concentration in blood, 30 min. [2, 5]: 340 ng/mL
- Concentration in blood, 60 min. [2, 5]: 180 ng/mL
- Concentration in blood, 120 min. [2, 5]: 80 ng/mL

Compound: CCOC(=O)C=C(C)N[C@@H](CC(C)C)C(=O)[O-].[Na+] [Compound 21, N-(1-Methyl-2-ethoxycarbonylvinyl)-L-leucine sodium salt]
- Blood glucose response (6 I.U.) ([1]; dog, enamine derivative 1%): 35-45%
- Time course: Lowest level ([1]; dog, enamine derivative 1%): 60 to 90 min
- Time course: Onset ([1]; dog, enamine derivative 1%): 30 min
- Time course: Return to pre-medication level ([1]; dog, enamine derivative 1%): 180 min
